One assay concerns tryptophan hydroxylase. Nature of the assay: Inhibition of the depolarisation induction of tryptophan hydroxylase in rat brainstem slices. In kind it is cell-based. The following applies: 37° C., from concentration response curves, read-out: IC50, concentration causing 50 percent inhibition of the depolarisation induction of tryptophan hydroxylase. The procedure: The activity of the compounds as inhibitors of the depolarisation induction of tryptophan hydroxylase can be assessed by determining the IC50 in rat brainstem slices as described by Margaret C. Boadle-Biber, Biochemical Pharmacology 27 1069 (1978). The IC50 values are derived from concentration response curves as the concentration causing 50 percent inhibition of the depolarisation induction at 37° C. As an illustration the IC50 of d,l 3-(3'-methoxyphenyl)-3-(3"-N,N-dimethylaminopropyl)-4,4-dimethyl-2,6-dioxopiperidine hydrochloride is 10 μM.

The test system of the next assay is 5-HT transmission. Nature of the assay: Fenfluramine-induced hyperthermia in rats (reduction of 5-HT transmission in vivo). Conditions: four day chronic pretreatment, 10 mg/kg ip. twice daily, fenfluramine 7.5 mg/kg ip. Here is the method:
The activity of the compounds to reduce 5-HT transmission can be assessed in vivo by measuring their effect on the hyperthermia induced by an intraperitoneal injection of fenfluramine (see A. Sulpizio et al, Life Sciences 22 1439 (1978). As an illustration a four day chronic pretreatment of rats with 3-(3'-methoxyphenyl)-3-(3"-N,N dimethylaminopropyl) 4,4-dimethyl-2,6-dioxopiperidine hydrochloride at a dose level of 10 mg/kg ip. twice daily produced a 50 percent reduction in the hyperthermia induced by fenfluramine administered at a dose level of 7.5 mg/kg ip.

Structures can show the parent of a compound that is named as a salt.

Regarding `COc1cccc(C2(CCCN(C)C)C(=O)NC(=O)CC2(C)C)c1` (racemic) [Example 1, 3-(3'-Methoxyphenyl-3-(3"-N,N-dimethylaminopropyl)-4,4-dimethyl-2,6-dioxopiperidine hydrochloride], the IC50 with tryptophan hydroxylase is 10 µM. The “reduction in the hyperthermia induced by fenfluramine” value in the assay on 5-HT transmission is 50%.

The values are drawn from patent US4461771A, “Treatment of migraine with dioxopiperidine derivatives” (priority 1983, dated 1984).
